Several values for one entry are separate records, joined by “and”; a condition that tells them apart may be missing. Equal entries are not always repeated.
Legend:
[1] = system: NNK-induced lung tumorigenesis; assay: NNK-induced lung adenoma formation in A/J mice; format: in vivo; conditions: for reduction of adenoma multiplicity / reduction of adenoma incidence / adenoma multiplicity: Example 4, Day 119; for adenoma multiplicity: NNK control 13.9±6.9; for minimum effective dose: dietary dose against NNK-induced lung adenoma formation
Protocol: Female A/J mice, 5-6 weeks of age from the Jackson Laboratory (Bar Harbor, Me.), were handled according to animal welfare protocols approved by IACUC at the University of Minnesota. […] After one-week acclimation, mice were weighed, randomized into different groups and switched to AIN-93G-powdered diet, defined as Day 1. The number of mice in each group was specified in the Result Section. On Day 7 and Day 14, mice in the negative control groups received 0.1 mL physiological saline solution while mice in the other groups received NNK (100 and 67 mg/kg respectively in 0.1 mL of physiological saline solution) via i.p. injection. At the end of Day 21, mice were switched to AIN-93M-powdered diet until the end of the study. Diet consumption was measured twice weekly and bodyweight was monitored weekly. All mice were euthanized with an overdose of carbon dioxide. The lungs were collected and tumors on the surface of the lung were counted.
Data on lung adenoma multiplicity were reported as mean±SD (n=5-40). […] For Experiment 2, unpaired t-test was used for comparison between NNK control and kava treatment groups. Two-sided p-value≤0.05 was considered statistically significant. Data on DNA adducts were reported as mean±SD (n=3). For the time-course study, unpaired […] was used for comparisons between NNK control and kava treatment groups. Two-sided p-value≤0.05 was considered statistically significant: *p<0.05, **p<0.01, and ***p<0.001. For the 24-h time point study, one-way ANOVA was used to compare means.
After one-week acclimation, mice were weighed, randomized into eight groups and switched to the AIN-93 G diet on a date defined as Day 1. The number of mice in each group is specified in the Results Section (FIG. 36). Mice were fed diets supplemented with different compounds at the dose specified in the Results Section during Day 1-Day 14. On Day 7 and Day 14, mice in the negative control group received 0.1 mL of saline solution while mice in the other groups received NNK (100 and 67 mg/kg, respectively, in 0.1 mL of saline solution) via i.p. injection. At the end of Day 21, mice were switched to the AIN-93 M diet until the end of the study. The diet was replenished twice weekly. The diet consumption was measured twice weekly and the bodyweight was monitored weekly. This study was terminated at the end of Day 119. All mice were euthanized with CO2 overdosing.

[2] = A/J mouse safety upon 17-week continuous exposure of (+)-DHM; format: in vivo, A/J mice; conditions: for adverse effects: 0.5 mg/g of diet (at least 10x minimum effective dose)
Protocol: After one-week acclimation, A/J mice were weighed and randomized into two groups (five mice in the control group and ten mice in (+)-DHM treatment group). Mice in the control group were maintained on the AIN-93 G diet for three weeks and then switched to the AIN-93 M diet until the end of Week 17. Mice in (+)-DHM treatment group were maintained on the same diet as the control group with supplementation of (+)-DHM at a dose of 0.5 mg/g of diet. Food was replenished twice weekly. Food intake was monitored twice a week and mouse bodyweight was monitored once a week. At the end of Week 8, serum samples from each mouse were prepared from blood collected via a facial vein and analyzed for a panel of clinical chemistry analytes. At the end of Week 17, mice were euthanized by CO2 overdosing. Blood was collected with one portion analyzed for hematology and the other portion processed for serum and analyzed for a full panel of clinical chemistry analytes. Individual animal body weights and major organ weights (lung, liver, heart, spleen and kidney) were recorded. Lung, liver, heart, spleen, kidney and pancreas were fixed in 10% neutral-buffered formalin solution.

[3] = 0.5 mg/g of diet, Week 17, data not shown

| Structure (SMILES) | reduction of adenoma multiplicity ([1]; 0.05 mg/g of diet (50 ppm) Day 1-Day 14) | reduction of adenoma incidence ([1]; 0.05 mg/g of diet Day 1-Day 14) | adenoma multiplicity ([1]; 0.05 mg/g of diet Day 1-Day 14) | reduction of adenoma incidence ([1]; 0.5 mg/g of diet Day 1-Day 14) | reduction of adenoma multiplicity ([1]; 0.5 mg/g of diet Day 1-Day 14) | adenoma multiplicity ([1]; 0.5 mg/g of diet Day 1-Day 14) | minimum effective dose [1] | adverse effects ([2]; 17 weeks) | food intake vs control ([2]; 0.5 mg/g of diet, 17 weeks) | weekly bodyweight vs control ([2]; 0.5 mg/g of diet, 17 weeks) | full-panel hematology vs control ([2]; 0.5 mg/g of diet, Week 17) | histopathological examination of liver, lung, heart, kidney, spleen and pancreas vs control [2, 3] | serum osmolality and anion gap vs control [2, 3] | final bodyweight and relative weights of five organs vs control ([2]; 0.5 mg/g of diet, Week 17, except for the lung tissues) | relative lung weight vs control ([2]; 0.5 mg/g of diet, Week 17, excluding one control mouse with lung hemorrhage (p=0.10)) | serum clinical chemistry (ALP, ALT, AST, BUN, albumin, total bilirubin, CK, glucose, cholesterol, amylase) vs control ([2]; 0.5 mg/g of diet, end of Week 8) | serum clinical chemistry vs control ([2]; 0.5 mg/g of diet, end of Week 17) |
| --- | --- | --- | --- | --- | --- | --- | --- | --- | --- | --- | --- | --- | --- | --- | --- | --- | --- |
| COC1=CC(=O)O[C@@H](CCc2ccc3c(c2)OCO3)C1 [(+)-DHM, (+)-dihydromethysticin] | 97% and 97.1% | 40% | 0.6±0.5 lung adenoma/mouse | 40% | 97.1% | 0.6±0.5 lung adenoma/mouse | lower than 0.05 mg/g | did not present with any adverse effects | similar | none of the differences were statistically significant | None of these parameters were significantly different | no significant differences | no differences | not significantly different | no significant differences | No significant differences | no significant differences |
| COC1=CC(=O)O[C@@H](CCc2ccc3c(c2)OCO3)C1 [DHM, dihydromethysticin] |  |  |  |  |  |  | lower than 0.05 mg/g | no adverse effects |  |  |  |  |  |  |  |  |  |

Reference: patent US10918687B2, “Kava derived therapeutic compounds and methods of use thereof” (KUALITY HERBCEUTICS LLC, priority 2013, dated 2021)
